Experimental data taken from patent publication US11648258B2, “Method and compounds for inhibiting the MCM complex and their application in cancer treatment” (priority 2012, dated 2023).

Columns and labels:
[1] = test system: L-02 cells (normal human liver cells); experiment: in vitro; conditions: L-02, 48 hrs
Description: (§1) For testing the anti-proliferation activity of the compounds in human cell lines and calculation of IC50, cancer cells including HepG2, HeLa and Hep3B (4×10^5 cells/well) and normal L-02 cells (5×10^5 cells/well) were respectively seeded in 96-well plates in 100 μl of culture medium and incubated for about 12 hrs at 37° C. The cells were treated with two-fold serial dilutions of the drugs for 48 hrs. Medium was removed and 100 μl of culture medium containing 1 μM WST-1 (water soluble tetrazolium-1) were added to each well. The cells were incubated for 2 hrs, and absorbance at 405 nm (reference at 630 nm) was then measured. To construct the standard curve of the relationship between cell number and absorbance at OD405, serial dilutions of cells with known cell numbers were seeded and incubated for six hrs before being measured by the WST-1 assay. The cell viability was expressed as the ratio of the number of live cells treated with a candidate compound versus that of the DMSO-treated cells.
A pair of human cell lines, L-02 (normal liver cells) and HepG2 (a liver cancer cell line) was treated with 17beta-Deacetyltanghinin for 48 hrs. […] In FIG. 2B-H, quantification of viable cell numbers was carried out using WST-1 (Water-soluble tetrazolium-1) assay.
To further test 17beta-Deacetyltanghinin and to determine the IC50 values, besides L-02 and HepG2, Hep3B (another liver cancer cell line which is p53-negative), HeLa (cervical cancer cell line), HK1 and C666-1 (nasopharyngeal carcinoma) cells and a hTert-immortalized normal nasopharyngeal cell line (NP460) were treated by 17beta-Deacetyltanghinin for 48 hrs, and the relative cell vabilities were determined by WST-1 assay (FIG. 2B, C).

[2] = test system: normal cells (L-02, NP460); experiment: WST-1 anti-proliferation assay, normal cells (IC50); assay type: cell-based; conditions: Homo sapiens, 48 hrs treatment
Description: as §1, with “cells. […]” for “cells.”

hMcm2 and hMcm6 [3] = target: T1, hMcm2 and hMcm6 (Homo sapiens, UniProt P49736+Q14566); experiment: Immunostaining / GFP fluorescence microscopy of MCM nuclear localization in HeLa cells; assay type: cell-based; conditions: 24 hrs
T1 construct: the endogenous hMcm2 and hMcm6 were detected by specific antibodies against these proteins; endogenous in cells; host or cells: HeLa
T1 sequence (P49736 2-904): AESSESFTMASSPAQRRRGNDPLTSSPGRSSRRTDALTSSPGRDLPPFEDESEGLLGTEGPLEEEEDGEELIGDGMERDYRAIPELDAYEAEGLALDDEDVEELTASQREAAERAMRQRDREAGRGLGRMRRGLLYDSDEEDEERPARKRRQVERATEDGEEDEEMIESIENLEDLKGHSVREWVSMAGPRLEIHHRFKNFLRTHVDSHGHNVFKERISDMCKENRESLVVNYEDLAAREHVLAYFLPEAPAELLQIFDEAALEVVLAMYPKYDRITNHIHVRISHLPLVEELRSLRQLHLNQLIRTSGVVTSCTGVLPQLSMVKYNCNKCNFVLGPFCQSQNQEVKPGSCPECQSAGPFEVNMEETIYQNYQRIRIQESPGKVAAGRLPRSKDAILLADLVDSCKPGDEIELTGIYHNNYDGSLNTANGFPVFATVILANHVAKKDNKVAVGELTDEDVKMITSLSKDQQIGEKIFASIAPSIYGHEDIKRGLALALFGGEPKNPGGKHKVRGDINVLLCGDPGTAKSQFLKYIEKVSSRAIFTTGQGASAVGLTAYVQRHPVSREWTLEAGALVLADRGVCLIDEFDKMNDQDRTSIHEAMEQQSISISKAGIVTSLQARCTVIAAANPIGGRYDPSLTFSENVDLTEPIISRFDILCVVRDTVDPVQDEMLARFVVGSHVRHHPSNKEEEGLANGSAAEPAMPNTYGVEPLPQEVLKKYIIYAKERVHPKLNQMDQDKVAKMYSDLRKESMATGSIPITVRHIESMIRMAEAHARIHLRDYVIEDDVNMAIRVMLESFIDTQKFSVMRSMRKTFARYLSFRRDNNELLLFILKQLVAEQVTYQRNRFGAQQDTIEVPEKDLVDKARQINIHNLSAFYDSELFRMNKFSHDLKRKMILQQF
T1 sequence (Q14566 whole entry): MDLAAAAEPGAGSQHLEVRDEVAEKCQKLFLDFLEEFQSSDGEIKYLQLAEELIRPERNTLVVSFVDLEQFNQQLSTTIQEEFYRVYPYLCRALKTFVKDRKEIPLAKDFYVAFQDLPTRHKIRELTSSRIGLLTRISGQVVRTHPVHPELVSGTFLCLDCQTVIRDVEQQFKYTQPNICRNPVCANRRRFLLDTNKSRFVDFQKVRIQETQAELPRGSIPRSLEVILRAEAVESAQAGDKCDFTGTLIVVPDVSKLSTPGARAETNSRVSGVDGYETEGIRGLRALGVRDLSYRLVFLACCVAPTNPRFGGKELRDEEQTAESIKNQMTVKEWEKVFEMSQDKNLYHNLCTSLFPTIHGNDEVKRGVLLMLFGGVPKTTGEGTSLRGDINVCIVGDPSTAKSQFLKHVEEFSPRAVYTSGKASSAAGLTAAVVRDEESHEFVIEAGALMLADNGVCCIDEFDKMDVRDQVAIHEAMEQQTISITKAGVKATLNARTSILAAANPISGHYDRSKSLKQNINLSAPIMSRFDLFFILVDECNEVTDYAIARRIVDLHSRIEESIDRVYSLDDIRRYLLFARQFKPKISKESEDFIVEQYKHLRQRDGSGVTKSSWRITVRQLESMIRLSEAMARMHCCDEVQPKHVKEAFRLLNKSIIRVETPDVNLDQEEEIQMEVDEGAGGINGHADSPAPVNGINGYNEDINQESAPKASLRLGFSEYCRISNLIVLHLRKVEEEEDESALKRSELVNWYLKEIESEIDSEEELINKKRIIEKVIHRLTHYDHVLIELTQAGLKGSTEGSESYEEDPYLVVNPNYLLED
Description: (§2) To study the effect of the anticancer compounds on the interaction between hMcm2 and hMcm6 in the cells, immunostaining was performed to detect the sub-cellular localization of the proteins. HeLa cells grown on cover slips (coated with poly-D-lysine) with or without drug treatment were fixed with 4% PFA in PBS at room temperature for 20 min. After permeabilization with 0.1% Triton X-100 and 1% BSA in PBS for 20 min, cells were blocked with 1% BSA and then incubated with rabbit anti-hMcm6 (Santa Cruz; 1:500) and mouse anti-hMcm2 (Becton Dickinson; 1:500) primary antibodies at room temperature for 1 hr. Cells were then incubated with Alexa Fluor 488-conjugated donkey […] antibody and Alexa Fluor 594-conjugated donkey anti-mouse antibody (Invitrogen; 1:500) at room temperature for 1 hr. Three washes with PBS were performed after each round of antibody incubation. Cells were then incubated with Hochest 33852 (Sigma Chemical Company; 1 μg/ml) at room temperature for 15 min for nuclear staining and washed with PBS three times again. At last, cells were mounted and observed under the fluorescence microscope (Nikon TE2000E).
(§3) Because pair-wise interactions among the MCM subunits are required for the MCM heterohexameric ring structure, which is essential for their import into the nucleus, disruption of the interaction between hMcm2 and hMcm6 should destroy the hexamer and result in failure of nuclear localization of MCM proteins. To test this, we employed both indirect fluorescence microscopy (immunostaining) using antibodies against the endogenous MCM proteins and direct fluorescence microscopy after transfection with plasmids to express hMcm2-GFP and hMcm6-GFP in the cells.
(§4) In immunostaining, HeLa cells were treated by 17beta-Deacetyltanghinin for 24 hrs, and the endogenous hMcm2 and hMcm6 were detected by specific antibodies against these proteins. […] In direct fluorescence microscopy, HeLa cells expressing hMcm2-GFP and hMcm6-GFP were treated with 17beta-Deacetyltanghinin for 36 hrs starting at 4 hrs post-transfection with the plasmids expressing hMcm2-GFP and hMcm6-GFP.

hMcm2 and hMcm6 [4] = experiment: as above; assay type: cell-based, human; conditions: 36 hrs treatment starting 4 hrs post-transfection
Description: as §2, §3, §4

L-02 cells = experiment: Flow cytometry (cell cycle) in normal L-02 cells; assay type: cell-based, human; conditions: 24 hrs
Description: Both floating and attached cells were collected and washed once with PBS. Cells were fixed in 70% ethanol for 1 hr to overnight at −20° C., washed thoroughly with PBS, and then stained in 50 μg/ml RNase A, 0.1% Triton X-100, 0.1 mM EDTA (pH 7.4), and 50 μg/ml propidium iodide for 30 min at 4° C. Samples were analyzed with the FACSort instrument (Becton Dickinson).
In FIG. 8A, flow cytometry was performed to analyze the DNA contents in HepG2 and L-02 cells treated with 17beta-Deacetyltanghinin at various concentrations for 24 hrs. In FIG. 8B, Hela cells were treated with 17beta-Deacetyltanghinin for 24 hrs and labeled with Annexin V-Cy3 (Arm. Cy3) for 20 min. Mitoxantrone (MTX), a clinical anticancer drug that can induce apoptosis in cancer cells, was used as a positive control.

[5] = test system: HeLa cells xenograft tumors; experiment: In vivo anticancer activity, nude mice xenograft model; conditions: for suppression of tumor growth: days 1-3 and 6-10, HeLa xenograft
Description: In vivo anticancer activity tests were carried out in the nude mice xenograft model by inoculating nude mice with HeLa cells in both the left and right flanks. After random grouping, nude mice were treated intraperitoneally with 17beta-Deacetyltanghinin or the solvent (30% of propylene glycol in PBS). In the first test, 3 days after tumor inoculation when small tumors started to form, two groups of nude mice were treated on days 1-3 and 6-10 with 3.5 and 7.0 mg-drug/kg-body weight of 17beta-Deacetyltanghinin respectively, and another group of control mice were treated with the same volume of the solvent (FIG. 10A). In FIG. 10A, the tumor volume data represented by the small-size data point symbol linked with thin lines were obtained on the days when both measurement of tumor size and drug injections were performed, and the tumor volume data represented by the large-size data point symbol linked with thick lines were obtained on the days without drug injection. Each tumor size was average of ten tumors in five mice in each group.
A further set of animal experiments was then conducted with a longer period of time, in which fifteen drug injections at 5.0 mg/kg were performed one week after tumor inoculation when the tumor size reached 0.05-0.1 cm^3. In FIG. 10B, drug injections and tumor size measurements were performed on the days represented by the data points, and the photographs in FIG. 10C were taken on day 20.

## COC1C(O)[C@H](O[C@H]2CC[C@]3(C)C4CC[C@]5(C)[C@@H](C6=CC(=O)OC6)CC[C@]5(O)[C@@]45O[C@H]5C[C@@H]3C2)OC(C)[C@@H]1O (stereo partly drawn) [17beta-Deacetyltanghinin, 3β-O-(3-O-methyl-6-deoxy-α-L-glucopyranosyl)-7β,8β-epoxy-14β-hydroxy-card-20(22)-enolide]
[1]
  activity towards normal cells, direct microscopy of cell density and morphology: much lower activity
[2]
  IC50: > 4 µg/mL
hMcm2 and hMcm6 [3]
  nuclear localization of endogenous hMcm2 and hMcm6 (immunostaining): impaired
hMcm2 and hMcm6 [4]
  localization of expressed hMcm2-GFP and hMcm6-GFP (direct fluorescence): some of the expressed hMcm2-GFP and hMcm6-GFP located in the cytoplasm
L-02 cells
  cell cycle effect in normal cells: mostly arrested in G1 phase
[5]; 3.5 mg/kg intraperitoneally
  suppression of tumor growth: 70%
[5]; 7.0 mg/kg intraperitoneally
  suppression of tumor growth: 90%
[5]; fifteen injections at 5.0 mg/kg, started one week after inoculation
  tumors smaller than in solvent-treated control mice: over 80%
